Patent US20120122079A1, “INFECTION DETECTION METHODS AND SYSTEMS AND RELATED COMPOUNDS AND COMPOSITIONS” (priority 2010, published 2012)

Tested on: viral neuraminidase
Type: biochemical, influenza
Details: pH 5.5

Molecule	whether the substrate was cleaved and odorant released (decrease of the substrate signal and appearance of the cleavage products signal)
CC(=O)NC1C(O)CC(OCC2(C)CC2CC2CC3CC3(C)C2(C)C)(C(=O)O)OC1CC(O)CO [javanol, Sodium ([(1R,2S)-1-methyl-2-[[(1R,3S,5S)-1,2,2-trimethyl-3-bicyclo[3.1.0]hexanyl]methyl]cyclopropyl]methyl-5-acetamido-3,5-dideoxy-α-D-glycero-D-galacto-2-nonulopyranoside)onate]	substrate is still present
Sodium (4-(4-hydroxy-3-methoxyphenyl)butan-2-one-5-acetamido-3,5-dideoxy-α-D-glycero-D-galacto-2-nonulopyranoside)onate [zingerone]	significant loss of peak
